# Test results from ChEMBL document CHEMBL1130659, “Macrolide biosynthesis: a single cytochrome P450, PicK, is responsible for the hydroxylations that generate methymycin, neomethymycin, and picromycin in Streptomyces venezuelae” (Bioorg Med Chem Lett, 1998).
# Tests used:
# Format in all cases: ADME
# [1] = Ratio of kcat to Km was evaluated.
# [2] = Michaelis behavior of the enzyme (PicK/6-His)
# [3] = Catalytic constant expressed as Kinetic behavior of enzyme (PicK/6-His)
# [4] = Kinetic behavior of the enzyme (PicK/6-His) was evaluated
kcat/Km [1] [M⁻¹ s⁻¹],Km [2] [µM],k cat [3] [s⁻¹],Km [4] [µM],Structure (SMILES)
23000,88,2,440,CC[C@H]1OC(=O)[C@H](C)C(=O)[C@H](C)[C@@H](O[C@@H]2O[C@H](C)C[C@H](N(C)C)[C@H]2O)[C@@H](C)C[C@@H](C)C(=O)/C=C/[C@H]1C
8000,130,1.1,2200,CC[C@H]1OC(=O)[C@H](C)[C@@H](O[C@@H]2O[C@H](C)C[C@H](N(C)C)[C@H]2O)[C@@H](C)C[C@@H](C)C(=O)/C=C/[C@H]1C
